# Reference: paper PMC8129133, “Polymer-free corticosteroid dimer implants for controlled and sustained drug delivery” (Nature Communications, 2021)
# Values joined by “and” are separate entries in the source; they are usually repeats but may differ in a detail not shown here. Equal entries are not always repeated.
# Tests used:
# [1] = In vitro half-life / degradation of solubilized Dex-TEG-Dex in FBS; format: in vitro ADME
# Protocol: Dex-TEG-Dex was dissolved in acetone at 10 mg/ml and added to 100% FBS to obtain a final concentration of 10 µg/ml and incubated at 37 °C with constant agitation at 115 rpm (VWR). At experimental timepoints of t = 0, 0.5, 1, 2, 3, 4, 5, 6, and 24 h, sample was removed and protein was precipitated with acetonitrile. Samples were vortexed and centrifuged to separate extracted drug from the precipitated protein. The supernatant was then analyzed by HPLC as described above.
# [2] = system: lipopolysaccharide (LPS)-induced model of uveitis in a rat eye; assay: Rat uveitis model; format: in vivo, Brown Norway rats; details: for Retinal Thickness (µm): single eyes, Fig 7e
# Protocol: Sample preparation. Dex-TEG-Dex was weighed on a stainless steel coupon and transferred to a heat press (Carver Laboratory Press). Once melted, a polytetrafluoroethylene (PTFE) template was placed on the melt and pressure was applied for 2 min. Samples were cooled to room temperature prior to removal from the PTFE mold, yielding implants with 23 G diameter × 1 mm length. Samples were loaded into appropriate-sized needles (23 G), packaged, and sterilized by ethylene oxide gas.
# LPS stimulation and implantation. […] Animals were first sedated in an isoflurane gas chamber before being anaesthetized through an intraperitoneal injection of ketamine (100 mg/kg) and xylazine (10 mg/kg) solution. One day prior to LPS stimulation, eyes were prepared with topical anesthetic eye drops (Alcaine, 0.5%, Alcon) and pupils were dilated with application of one drop of 1% tropicamide (Alcon) on each cornea prior to anesthesia. Implants were then injected with a 23 G needle into the vitreous humor of rat eyes. Negative control animals received a sham injection, while the positive control group received a sham injection as well as Dex eye drops 4× daily (Maxidex 0.1%, Alcon). One day after test article administration, each rat received an intravitreal injection of 100 ng of LPS (LPS Escherichia coli 0111:B4, Sigma Aldrich) to induce inflammation. The inflammatory state of the eyes was monitored by slit-lamp microscopy (Phoenix Anterior Segment Slit Lamp), fundus microscopy (Phoenix Micron IV), and optical coherence tomography (Phoenix image-guided OCT) for 72 h post-LPS injection. Slit-lamp was used to image the anterior structures of the rat eye and to assess changes in vasculature, aqueous humor haze, pupil responsiveness, and presence of cellular infiltrates. Anterior segment OCT (ASOCT) was used to assess signs of inflammation in the anterior chamber through anterior chamber flare, pupillary fibrin occlusions, and presence of inflammatory cells. The ASOCT was used only for qualitative evaluation of the inflammatory state. Posterior segment OCT (PSOCT) was used to capture six (6) images around the optic disc (OD) of each eye and the images were used for retinal thickness, inflammatory cell count, and vitreal haze evaluation. Retinal thickness was measured using ImageJ (v.1.8.0) from four (4) OCT images close to the optic disk. Inflammatory cells were manually quantified from the same OCT images used for retinal thickness measurements.
# [3] = Dissolution of intravitreal implants in the rabbit eye (IR imaging of implant diameter, model fit); format: in vivo; details: for local surface dissolution rate constant / Implant Diameter (%): intravitreal; for local surface dissolution rate constant / Diameter of the drug delivery device / Diameter of drug delivery device: rabbit eye; for Implant Diameter (%): Fig 8b, 30 G × 6 mm implant, rabbit; for Diameter of the drug delivery device: script for Supp Fig 11a (30 G implant); for Diameter of drug delivery device: script for Supp Fig 11b, 32G × 6mm
# Protocol: Sample preparation. All implants were formed by melt extrusion of Dex-TEG-Dex, followed by cutting of implants to desired length. Samples were loaded into appropriate sized needles (27 G for 27 G implant, 30 G for 30 G, and 32 G implants), packaged, and sterilized by ethylene oxide gas.
# IR imaging. Wide-angle infrared (IR) imaging was performed at baseline, and monthly thereafter for implant imaging and eye health assessment. The imaging was performed using a Heidelberg Spectralis® imaging platform and IR images were analyzed using image analysis software (Image J v.1.8.0) to measure the diameter change of the implants. Three diameter measurements per image and a minimum of two images per implant were used to determine the diameter of the implant at each time point.
# Mathematical modeling of drug release. Modeling of the Dex-TEG-Dex implants in the rabbit eye was performed using a compartmental model of drug release using MathWorks MATLAB R2020b. In this model, the drug delivery device is formed of solid drug dimer which undergoes surface erosion to release dimer into an intermediate domain. In the intermediate domain, dimer undergoes degradation to free drug and mono (linker-drug), which subsequently degrades to free linker and free drug. These components undergo transport to the target domain and are then cleared.
# This model employs several simplifying assumptions. (1) The mechanism of surface dissolution is local (the same for each part of the surface independent of its location on the surface of the implant), in a manner dependent on the properties of the implant’s physiological location (e.g., dimer saturation). (2) Rate constants of processes are time independent, and the dissolution rates only depend on the corresponding changes in the shape of the delivery devices and properties of their environment. (3) Dimer degradation in the domain of interest occurs on a comparatively fast time scale such that the saturation concentration of dimer is not reached.
# A differential equation for the radius, R(t), of a cylindrical drug delivery device described by the compartmental model and derived using Noyes–Whitney equation[74],[75] can be written as (1):1 dR/dt=−DμY/ρh⋅y^*=−b, where D is a diffusion coefficient, µY is the molecular mass of the dimer, ρ is the density of the drug delivery device material, h is the thickness of the concentration gradient layer near the surface, y* is the saturation concentration of the dimer and b is the local surface dissolution rate.
# The initial radius, R, of the cylindrical device is known: R0=R0 . Integrating Eq. (1) with this initial condition, gives Eq. (2):2 Rt=R0−b⋅t
# Equation (2) was fit to available data (time-dependent measurements of implant diameter) to estimate the local surface dissolution rate constant b for the 30 G × 6 mm and 32 G × 6 mm Dex-TEG-Dex intravitreal implants.
# [4] = 3-point bend test of extruded rods; format: physicochemical; details: Fig 2c
# Source text: Extruded rods of ~300 µm diameter and 8 mm length (6 mm span on testing apparatus) were subjected to a 3-point bend test using an Instron uniaxial servo-hydraulic testing machine (Instron Model 8501) with a 2.5 N load cell and cross-head speed of 0.8 mm/min.
smiles,measurement,setting,value
C[C@@H]1C[C@H]2[C@@H]3CCC4=CC(=O)C=C[C@]4(C)[C@@]3(F)[C@@H](O)C[C@]2(C)[C@@]1(O)C(=O)COC(=O)OCCOCCOCCOC(=O)OCC(=O)[C@@]1(O)[C@H](C)C[C@H]2[C@@H]3CCC4=CC(=O)C=C[C@]4(C)[C@@]3(F)[C@@H](O)C[C@@]21C [Dex-TEG-Dex],t1/2 of solubilized dimer with protease inhibitor,[1]; FBS + Pefabloc 1 mg/ml,17.5 ± 4.0 h
same,t1/2 of solubilized dimer,"[1]; FBS, 37 °C",1.6 ± 0.3 h
same,Dex-TEG-Dex,"[1]; Fig 4f/4g, 100% FBS, 0 h",8904.60 ng/mL and 12808.33 ng/mL and 10692.90 ng/mL
same,Dex-TEG-Dex,"[1]; Fig 4f/4g, 100% FBS, 0.5 h",7215.95 ng/mL and 9829.58 ng/mL and 8828.65 ng/mL
same,Dex-TEG-Dex,"[1]; Fig 4f/4g, 100% FBS, 1 h",5359.02 ng/mL and 7447.63 ng/mL and 6811.81 ng/mL
same,Dex-TEG-Dex,"[1]; Fig 4f/4g, 100% FBS, 2 h",2692.08 ng/mL and 4406.52 ng/mL and 3872.43 ng/mL
same,Dex-TEG-Dex,"[1]; Fig 4f/4g, 100% FBS, 3 h",1327.43 ng/mL and 2230.11 ng/mL and 1843.05 ng/mL
same,Dex-TEG-Dex,"[1]; Fig 4f/4g, 100% FBS, 4 h",658.17 ng/mL and 1181.11 ng/mL and 1053.60 ng/mL
same,Dex-TEG-Dex,"[1]; Fig 4f, 100% FBS, 24 h",0.00 ng/mL
same,Dex-TEG-Dex,"[1]; Fig 4g, 100% FBS + Pefabloc, 0 h",9696.84 ng/mL and 12099.70 ng/mL and 11672.92 ng/mL
same,Dex-TEG-Dex,"[1]; Fig 4g, 100% FBS + Pefabloc, 0.5 h",9639.71 ng/mL and 11685.46 ng/mL and 12342.53 ng/mL
same,Dex-TEG-Dex,"[1]; Fig 4g, 100% FBS + Pefabloc, 1 h",9646.33 ng/mL and 10767.80 ng/mL and 11272.62 ng/mL
same,Dex-TEG-Dex,"[1]; Fig 4g, 100% FBS + Pefabloc, 2 h",9053.36 ng/mL and 10983.11 ng/mL and 10167.52 ng/mL
same,Dex-TEG-Dex,"[1]; Fig 4g, 100% FBS + Pefabloc, 3 h",9138.02 ng/mL and 9847.00 ng/mL and 8269.83 ng/mL
same,Dex-TEG-Dex,"[1]; Fig 4g, 100% FBS + Pefabloc, 4 h",8469.46 ng/mL and 9930.96 ng/mL and 8280.63 ng/mL
same,Dex-TEG-Dex,"[1]; Fig 4g, 100% FBS + Pefabloc, 5 h",8230.46 ng/mL and 9376.67 ng/mL and 8546.80 ng/mL
same,Dex-TEG-Dex,"[1]; Fig 4g, 100% FBS + Pefabloc, 6 h",7196.79 ng/mL and 9318.49 ng/mL and 8262.17 ng/mL
same,Retinal Thickness (µm),[2]; 0h,298 µm and 279 µm and 272 µm and 275 µm and 314 µm and 300 µm and 293 µm and 294 µm
same,Retinal Thickness (µm),[2]; 24h,300 µm and 269 µm and 279 µm and 286 µm and 296 µm and 289 µm and 292 µm
same,Retinal Thickness (µm),[2]; 48h,279 µm and 296 µm and 265 µm and 264 µm and 275 µm and 261 µm and 294 µm and 266 µm
same,Retinal Thickness (µm),[2]; 72h,245 µm and 261 µm and 250 µm and 249 µm and 236 µm and 241 µm and 247 µm and 259 µm
same,Retinal Thickness (µm),[2]; -24h,244 µm and 248 µm and 257 µm and 251 µm and 238 µm and 240 µm
same,effect on LPS-induced inflammatory response,"[2]; intravitreal 23 G implant, 24 h before LPS, cellular infiltrate and retinal thickness by OCT, 72 h",acutely suppress the LPS-induced inflammatory response
same,local surface dissolution rate constant,[3]; 30 G implant,0.1510 ± 0.0084 µm/day
same,local surface dissolution rate constant,[3]; 32 G implant,0.1522 ± 0.0140 µm/day
same,Implant Diameter (%),[3]; 0 days,107.57% and 103.15% and 92.13% and 99.18% and 92.81% and 97.05% and 100.23% and 107.88%
same,Implant Diameter (%),[3]; 35 days,87.55% and 86.70% and 88.00% and 92.68% and 90.49% and 81.42% and 103.34% and 91.71%
same,Implant Diameter (%),[3]; 76 days,82.56% and 74.07% and 79.78% and 98.06% and 80.37% and 72.75% and 93.94%
same,Implant Diameter (%),[3]; 128 days,76.90% and 66.50% and 66.32% and 64.24% and 79.47% and 77.51% and 67.41% and 82.08%
same,Implant Diameter (%),[3]; 210 days,55.93% and 41.19% and 50.86% and 49.89% and 69.49% and 44.35% and 52.23% and 60.96%
same,Diameter of the drug delivery device,[3]; day 0,115.44 µm and 122.56 µm and 115.98 µm and 121.28 µm and 125.25 µm and 134.81 µm and 135.77 µm and 128.91 µm
same,Diameter of the drug delivery device,[3]; day 35,109.97 µm and 115.81 µm and 110.60 µm and 101.74 µm and 129.14 µm and 114.61 µm and 109.41 µm and 108.35 µm
same,Diameter of the drug delivery device,[3]; day 76,92.56 µm and 99.70 µm and 122.54 µm and 101.44 µm and 90.91 µm and 117.39 µm and 94.21 µm and 112.13 µm
same,Diameter of the drug delivery device,[3]; day 128,81.93 µm and 80.28 µm and 99.31 µm and 96.86 µm and 84.21 µm and 102.57 µm and 96.10 µm and 83.10 µm
same,Diameter of the drug delivery device,[3]; day 185,71.40 µm and 91.90 µm and 62.52 µm and 53.64 µm and 76.76 µm and 78.82 µm and 73.54 µm
same,Diameter of the drug delivery device,[3]; day 210,63.55 µm and 62.35 µm and 86.62 µm and 55.42 µm and 65.27 µm and 76.18 µm and 69.90 µm and 51.48 µm
same,Diameter of drug delivery device,[3]; day 0,71.94 µm and 80.30 µm and 83.05 µm and 99.99 µm and 86.79 µm and 101.43 µm and 116.40 µm and 84.89 µm
same,Diameter of drug delivery device,[3]; day 35,90.18 µm and 66.10 µm and 74.39 µm and 80.46 µm and 84.98 µm and 58.84 µm and 82.44 µm and 84.41 µm
same,Diameter of drug delivery device,[3]; day 76,77.98 µm and 58.21 µm and 73.62 µm and 66.12 µm and 67.29 µm and 54.07 µm and 65.40 µm and 64.89 µm
same,Diameter of drug delivery device,[3]; day 128,43.88 µm and 50.55 µm and 44.52 µm and 60.85 µm and 49.60 µm and 50.03 µm and 42.29 µm and 71.40 µm
same,Flexural Modulus,[4],2.45 GPa and 2.68 GPa and 3.21 GPa and 3.29 GPa and 3.01 GPa
